The record followed here is patent publication US12458659B2, “Methods for treating macrophage-mediated diseases, and methods of identifying agents useful therefore” (The Regents of the University of California, priority 2019, dated 2025).

For test [1], the system named is caspase-1. As to the kind of experiment: Caspase-1 activation in LPS-primed, ATP-treated BMDM (immunoblot). Format: cell-based, mouse. The settings on record: ATP-treated BMDM pretreated with RSM932A. The protocol: Macrophage culture and stimulation—Femurs and tibias from C57BL/6 mice, Ampkα1^−/− mice, and Il10rb^−/− mice at 6-10 weeks of age were used to generate bone-marrow-derived macrophages (BMDM) as described (Hornung et al., 2008). Macrophages were cultured in DMEM supplemented with 10% FBS, 20% L929-cell conditioned medium, and 100 U/ml penicillin-streptomycin for 7-10 days. Bone marrow was isolated from MWS Nlrp3^A350VneoRCreT, FCAS Nlrp3^L351PneoCreT and NOMID Nlrp3^D301NneoCreT conditional knock-in mice (Bonar et al., 2012; Brydges et al., 2009), and were allowed to differentiate over 7 days with addition of fresh mouse recombinant GMCSF every three days. (Z)-4-hydroxitamoxifen at 0.4 μg/ml was added to cells 24 hr prior to treatment to induce the mutant Nlrp3 allele. Immortalized mouse BMDM were grown in DMEM supplemented with 10% FBS and 100 U/ml penicillin-streptomycin. All cells were grown at 37° C. with 5% CO2. […]
Protein Immunoblotting and ELISA—Mitochondria were isolated using Mitochondria Isolation kit. Whole cell lysates were prepared in NP40 buffer containing a protease inhibitor cocktail and a phosphatase inhibitor cocktail, and supernatants were analyzed by SDS-PAGE. […]

Test [2] relates to choline mobilization via the Kennedy pathway. The experiment in a line: Choline, phosphocholine and phosphatidylcholine content of LPS-stimulated BMDM (NMR, MS). The class given is cell-based, mouse. The settings on record: RSM932A-pretreated BMDM, LPS 4 hr. The protocol:
Choline and Phosphocholine Analysis by NMR—BMDM were treated with LPS for 4 hr and then were collected and processed for NMR analysis as described (Guma et al., 2015a; Tiziani et al., 2009). Polar metabolite isolation was performed using a modified Bligh-Dyer procedure (Wu et al., 2008). Extracts were dried using a CentriVap refrigerated vacuum concentrator (Labconco, Kansas City, MO, USA). Dried extracts were reconstituted in 100 mM phosphate buffer (pH 7.0) prepared in 10% H2O/90% D2O (Sigma) that contained 0.5 mM sodium 3-(trimethylsilyl)propionate-2,2,3,3,-d4 (TMSP) as the internal standard. One-dimensional ^1H NMR spectra were acquired on a Bruker Avance III 500 MHz with 1.7 mm TCI MicroCryoProbe system (Bruker BioSpin Corp., Billerica, MA) equipped with an autosampler at 300 K and processed as previously described (Lodi et al., 2017; Lu et al., 2017; Ludwig and Gunther, 2011). Metabolite assignment and quantification were performed using the Chenomx 8.2 NMR Suite (Chenomx Inc., Edmonton, Alberta, Canada), the Birmingham Metabolite Library (Ludwig et al., 2012), and the Human Metabolome Database (Wishart et al., 2012).
Total phosphatidylcholine and mitochondrial lipids analysis by mass spectrometry—Total phosphatydilcholine (PC) analysis was measured in RSM932A-pretreated BMDM stimulated with LPS for 4 hr, while mitochondrial lipids were measured in mitochondria isolated from BMDM cultured in control or choline deficient medium and subjected to different treatments for 24 hr. Samples were processed for UHPLC-MS/MS analysis and analysis was performed on a hybrid quadrupole-Orbitrap mass spectrometer (Q Exactive, Thermo Scientific, Bremen, Germany) coupled to an Accela 1250 UHPLC system equipped with a quaternary pump, vacuum degasser, and open autosampler with temperature controller (6° C.; Fisher Scientific, San Jose, CA, USA). […]

Structures are written as SMILES.

For `C/[N+](c1ccc(Cl)cc1)=c1\ccn(Cc2ccc(-c3ccc(Cn4cc/c(=[N+](/C)c5ccc(Cl)cc5)c5ccccc54)cc3)cc2)c2ccccc12` [RSM932A], the caspase-1 activation result in test [1] is listed as “inhibited”. Besides, in test [2], the “LPS-induced increase in cellular content of phosphocholine, glycerol-3-phosphocholine and phosphatidylcholine (PC)” value is listed as “blocked”.
